Assay results from US20240425523A1, “Compounds for the Degradation of EGFR Kinase” (Beigene Switzerland GMBH, priority 2023, published 2024).

Experiments:
Format in all cases: cell-based
[1] = target: T1, EGFR-L858R/C797S (H1975-clone #8 cells) (Homo sapiens, UniProt P00533, C797S/L858R); test: Cell degradation of EGFR, HTRF assay, H1975-clone#8 (L858R/C797S) cells; settings: 16 h treatment; for DC50: EGFR degradation; for Dmax: maximum percentage of degradation
T1 construct: expressed in transfected cells; host or cells: H1975 (endogenous EGFR knocked out, clone #8)

[2] = target: T2, p-EGFR L858R (BaF3-L858R cells) (Homo sapiens, UniProt P00533, L858R); test: Cell p-EGFR inhibition assay, HTRF, BaF3-L858R cells; settings: 16 h treatment; for Imax (%): maximum percentage of pEGFR inhibition; for IC50: pEGFR inhibition
T2 construct: host or cells: BaF3
Method in brief: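 BaF3-L858R cells treated 16 h at 37 °C, 5% CO2 with compound from 10 uM top, 5-fold dilutions, 8 doses, in 0.1% DMSO medium. Lysates read overnight by HTRF p-EGFR antibodies; IC50 fitted to four-parameter curve against DMSO high control.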

[3] = target: p-EGFR Del19/C797S (H1975-clone #23 cells) (Homo sapiens, UniProt P00533); test: Cell p-EGFR inhibition assay, HTRF, H1975-clone#23 (DEL19/C797S) cells; settings: 16 h treatment; for Imax (%): maximum percentage of pEGFR inhibition; for IC50: pEGFR inhibition
Method in brief: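 Phospho-EGFR read by overnight HTRF on lysates, normalized to DMSO-treated high control; IC50, Hill slope and Imax fitted. Compounds were applied for 16 h (10 uM top, 5-fold steps, 8 doses) to an H1975 single clone carrying only exogenous Del19/C797S EGFR after sgRNA knockout of endogenous copies.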

[4] = target: T3, EGFR L858R (BaF3-L858R cells) (Homo sapiens, UniProt P00533, L858R); test: Cell degradation of EGFR, HTRF assay, BaF3-L858R cells; settings: 16 h treatment; for DC50: EGFR degradation; for Dmax: maximum percentage of degradation
T3 construct: host or cells: BaF3
Method in brief: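 BaF3-L858R cells treated 16 h at 37° C, 5% CO2 with compound (top 10 uM final, 5-fold, 8 doses, 0.1% DMSO). DC50 from four-parameter fit; Dmax is maximum percent degradation.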

Row | Compound | DC50 [1] | Dmax [1] | Imax (%) [2] | IC50 [2] | Imax (%) [3] | IC50 [3] | DC50 [4] | Dmax [4]
1 | COc1cc2c(cc1N1CCN(C3CCN(c4cc(F)c([C@H]5CCC(=O)NC5=O)c(F)c4)CC3)CC1)N1C[C@@H]3CC[C@H](COc4c(c(C)nn4C)-c4cc(cc(C)n4)C(=O)/N=C/1N2)C3 [Example 152, (R)-3-(2,6-difluoro-4-(4-(4-((7^1R,7^3S,E)-5^5-methoxy-1^1,1^3,2^6-trimethyl-3-oxo-5^2,5^3-dihydro-1^1H,5^1H-9-oxa-4-aza-5(2,1)-benzo[d]imidazola-2(2,4)-pyridina-1(4,5)-pyrazola-7(1,3)-cyclopentanacyclononaphane-5^6-yl)piperazin-1-yl)piperidin-1-yl)phenyl)piperidine-2,6-dione] | 1.28 nM | 88.7% | 95.61% | 15 nM | 100.06% | 2.46 nM | 1.19 nM | 86.6%
2 | Cc1cc2cc(n1)-c1c(C)nn(C)c1OC[C@H]1CC[C@H](C1)CN1/C(=N/C2=O)Nc2ccc(N3CC(N(C)C4CCN(c5cc(F)c([C@H]6CCC(=O)NC6=O)c(F)c5)CC4)C3)cc21 [Example 153, (R)-3-(2,6-difluoro-4-(4-(methyl(1-((7^1R,7^3S,E)-1^1,1^3,2^6-trimethyl-3-oxo-5^2,5^3-dihydro-1^1H,5^1H-9-oxa-4-aza-5(2,1)-benzo[d]imidazola-2(2,4)-pyridina-1(4,5)-pyrazola-7(1,3)-cyclopentanacyclononaphane-5^6-yl)azetidin-3-yl)amino)piperidin-1-yl)phenyl)piperidine-2,6-dione] | 2.92 nM | 87% | 97.42% | 11.1 nM | 100.23% | 1.56 nM | 2.8 nM | 84.4%
3 | COC[C@H]1CN(c2ccc3c(c2)N2C[C@@H]4CC[C@H](COc5c(c(C)nn5CCO)-c5cc(cc(C)n5)C(=O)/N=C/2N3)C4)CCN1C1CCN(c2cc(F)c([C@H]3CCC(=O)NC3=O)c(F)c2)CC1 [Example 156, (R)-3-(2,6-difluoro-4-(4-((R)-4-((7^1R,7^3S,E)-1^1-(2-hydroxyethyl)-1^3,2^6-dimethyl-3-oxo-5^2,5^3-dihydro-1^1H,5^1H-9-oxa-4-aza-5(2,1)-benzo[d]imidazola-2(2,4)-pyridina-1(4,5)-pyrazola-7(1,3)-cyclopentanacyclononaphane-5^6-yl)-2-(methoxymethyl)piperazin-1-yl)piperidin-1-yl)phenyl)piperidine-2,6-dione] | 2.73 nM | 88% | 95.16% | 4.81 nM | 100.92% | 0.789 nM | 2.11 nM | 87.4%
4 | COC[C@@H]1CN(c2ccc3c(c2)N2C[C@@H]4CC[C@H](COc5c(c(C)nn5CCO)-c5cc(cc(C)n5)C(=O)/N=C/2N3)C4)CCN1C1CCN(c2cc(F)c([C@H]3CCC(=O)NC3=O)c(F)c2)CC1 [Example 157, (R)-3-(2,6-difluoro-4-(4-((S)-4-((7^1R,7^3S,E)-1^1-(2-hydroxyethyl)-1^3,2^6-dimethyl-3-oxo-5^2,5^3-dihydro-1^1H,5^1H-9-oxa-4-aza-5(2,1)-benzo[d]imidazola-2(2,4)-pyridina-1(4,5)-pyrazola-7(1,3)-cyclopentanacyclononaphane-5^6-yl)-2-(methoxymethyl)piperazin-1-yl)piperidin-1-yl)phenyl)piperidine-2,6-dione] | 1.88 nM | 88% | 96.89% | 2.87 nM | 100.52% | 1.1 nM | 2.03 nM | 85.8%
5 | Cc1cc2cc(n1)-c1c(C)nn(C)c1OC[C@H]1CC[C@H](C1)CN1/C(=N/C2=O)Nc2ccc(N3CCC(NC4CN(c5c(F)cc(OC6CCC(=O)NC6=O)cc5F)C4)CC3)cc21 (stereo partly shown) [Example 158, 3-(3,5-difluoro-4-(3-((1-((7^1R,7^3S,E)-1^1,1^3,2^6-trimethyl-3-oxo-5^2,5^3-dihydro-1^1H,5^1H-9-oxa-4-aza-5(2,1)-benzo[d]imidazola-2(2,4)-pyridina-1(4,5)-pyrazola-7(1,3)-cyclopentanacyclononaphane-5^6-yl)piperidin-4-yl)amino)azetidin-1-yl)phenoxy)piperidine-2,6-dione] | 4.39 nM | 77.3% | 95.45% | 72.6 nM | 100.46% | 3.65 nM | 3.75 nM | 79.8%
6 | COCCn1nc(C)c2c1OC[C@H]1CC[C@H](C1)CN1/C(=N/C(=O)c3cc(C)nc-2c3)Nc2ccc(N3CCN(C4CCN(c5cc(F)c([C@H]6CCC(=O)NC6=O)c(F)c5)CC4)[C@@H](COC)C3)cc21 [Example 160, (R)-3-(2,6-difluoro-4-(4-((R)-4-((7^1R,7^3S,E)-1^1-(2-methoxyethyl)-1^3,2^6-dimethyl-3-oxo-5^2,5^3-dihydro-1^1H,5^1H-9-oxa-4-aza-5(2,1)-benzo[d]imidazola-2(2,4)-pyridina-1(4,5)-pyrazola-7(1,3)-cyclopentanacyclononaphane-5^6-yl)-2-(methoxymethyl)piperazin-1-yl)piperidin-1-yl)phenyl)piperidine-2,6-dione] | 3.01 nM | 88.2% | 94.19% | 3.02 nM | 95.87% | 0.59 nM | 3.08 nM | 76.5%
7 | COCCn1nc(C)c2c1OC[C@H]1CC[C@H](C1)CN1/C(=N/C(=O)c3cc(C)nc-2c3)Nc2ccc(N3CCN(C4CCN(c5cc(F)c([C@H]6CCC(=O)NC6=O)c(F)c5)CC4)CC3)cc21 [Example 161, (R)-3-(2,6-difluoro-4-(4-(4-((7^1R,7^3S,E)-1^1-(2-methoxyethyl)-1^3,2^6-dimethyl-3-oxo-5^2,5^3-dihydro-1^1H,5^1H-9-oxa-4-aza-5(2,1)-benzo[d]imidazola-2(2,4)-pyridina-1(4,5)-pyrazola-7(1,3)-cyclopentanacyclononaphane-5^6-yl)piperazin-1-yl)piperidin-1-yl)phenyl)piperidine-2,6-dione] | 2.96 nM | 89.3% | 93.23% | 4.51 nM | 95.04% | 0.49 nM | 7.2 nM | 91.4%
8 | Cc1cc2cc(n1)-c1cnn(C)c1OC[C@H]1CC[C@H](C1)CN1/C(=N/C2=O)Nc2ccc(N3CCN(C4CCN(c5ccc([C@H]6CCC(=O)NC6=O)nc5C)CC4)[C@H](C)C3)cc21 [Example 162, 3-(5-(4-((R)-4-((7^1R,7^3S,E)-1^1,2^6-dimethyl-3-oxo-5^2,5^3-dihydro-1^1H,5^1H-9-oxa-4-aza-5(2,1)-benzo[d]imidazola-2(2,4)-pyridina-1(4,5)-pyrazola-7(1,3)-cyclopentanacyclononaphane-5^6-yl)-2-methylpiperazin-1-yl)piperidin-1-yl)-6-methylpyridin-2-yl)piperidine-2,6-dione] | 3.14 nM | 85.4% | 93.37% | 3.68 nM | 95.16% | 0.21 nM | 4.86 nM | 88.6%
